The source made the active and inactive calls. The calls are words filed in the database; no cut-off is given here.
Experiments:
[1] = target: Prothrombin (Homo sapiens) (UniProt P00734); experiment: Inhibition of factor 2a (unknown origin) at IC50 preincubated for 1 min followed by chromogenic substrate addition and measured for 2 mins; settings: time 3.0 min
[2] = target: T1, Coagulation factor VII (Homo sapiens) (UniProt P08709); experiment: Inhibition of factor 7a (unknown origin) at IC50 using pefachrome factor VIIa as substrate preincubated for 1 min followed by chromogenic substrate addition and measured for 2 mins; settings: time 3.0 min
T1 sequence (whole entry): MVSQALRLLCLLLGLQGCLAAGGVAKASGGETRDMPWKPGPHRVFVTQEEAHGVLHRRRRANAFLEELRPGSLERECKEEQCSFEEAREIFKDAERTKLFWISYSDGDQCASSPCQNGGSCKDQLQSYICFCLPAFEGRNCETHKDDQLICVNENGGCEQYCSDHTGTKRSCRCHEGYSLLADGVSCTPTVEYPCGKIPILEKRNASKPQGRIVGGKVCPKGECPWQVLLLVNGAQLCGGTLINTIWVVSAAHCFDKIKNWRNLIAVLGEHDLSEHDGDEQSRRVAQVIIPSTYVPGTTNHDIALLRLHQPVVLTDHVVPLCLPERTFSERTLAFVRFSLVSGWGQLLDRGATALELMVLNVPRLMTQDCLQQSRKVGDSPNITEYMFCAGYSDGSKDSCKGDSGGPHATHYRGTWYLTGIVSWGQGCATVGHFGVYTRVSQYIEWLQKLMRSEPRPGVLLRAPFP

[3] = target: Coagulation factor X (Homo sapiens) (UniProt P00742); experiment: Inhibition of factor 10a (unknown origin) at IC50 preincubated for 1 min followed by chromogenic substrate addition and measured for 2 mins; settings: time 3.0 min
Sequence of Coagulation factor X (Homo sapiens) (P00742 41-179 limits assumed): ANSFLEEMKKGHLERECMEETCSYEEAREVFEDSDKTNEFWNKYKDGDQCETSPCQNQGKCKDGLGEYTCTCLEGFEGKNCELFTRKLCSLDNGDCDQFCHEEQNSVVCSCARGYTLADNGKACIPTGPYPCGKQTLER
Sequence of Coagulation factor X (Homo sapiens) (P00742 235-488 limits assumed): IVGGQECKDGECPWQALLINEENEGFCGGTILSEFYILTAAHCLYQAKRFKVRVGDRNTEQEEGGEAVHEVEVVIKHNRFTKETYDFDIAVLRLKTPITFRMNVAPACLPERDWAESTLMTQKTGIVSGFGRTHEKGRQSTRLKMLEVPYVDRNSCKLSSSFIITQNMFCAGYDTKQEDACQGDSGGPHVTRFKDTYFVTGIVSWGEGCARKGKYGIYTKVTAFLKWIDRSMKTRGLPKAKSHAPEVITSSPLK

[4] = target: Coagulation factor XI (Homo sapiens) (UniProt P03951); experiment: Inhibition of factor 11a (unknown origin) at IC50 using S-2366 as substrate preincubated for 1 min followed by chromogenic substrate addition and measured for 2 mins; settings: time 3.0 min
Sequence of Coagulation factor XI (Homo sapiens) (P03951 19-387 limits assumed): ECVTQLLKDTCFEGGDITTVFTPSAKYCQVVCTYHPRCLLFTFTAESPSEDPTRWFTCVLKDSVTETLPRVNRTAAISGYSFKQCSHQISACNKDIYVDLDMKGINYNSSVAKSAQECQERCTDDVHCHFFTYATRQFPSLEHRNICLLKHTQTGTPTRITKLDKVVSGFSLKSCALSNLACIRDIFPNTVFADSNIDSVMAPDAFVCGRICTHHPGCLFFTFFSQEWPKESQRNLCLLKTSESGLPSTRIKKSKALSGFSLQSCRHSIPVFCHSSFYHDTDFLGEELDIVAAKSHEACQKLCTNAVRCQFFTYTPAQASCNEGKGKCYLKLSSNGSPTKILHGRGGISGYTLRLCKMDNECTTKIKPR
Sequence of Coagulation factor XI (Homo sapiens) (P03951 388-625 limits assumed): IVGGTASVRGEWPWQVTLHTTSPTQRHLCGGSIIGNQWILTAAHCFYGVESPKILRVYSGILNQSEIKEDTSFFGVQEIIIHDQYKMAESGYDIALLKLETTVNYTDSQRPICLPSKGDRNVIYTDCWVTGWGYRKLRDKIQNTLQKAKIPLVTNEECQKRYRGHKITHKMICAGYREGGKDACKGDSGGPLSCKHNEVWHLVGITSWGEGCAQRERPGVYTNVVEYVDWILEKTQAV

[5] = target: T2, Coagulation factor XII (Homo sapiens) (UniProt P00748); experiment: Inhibition of factor 12a (unknown origin) at IC50 using kallikrein chromogenic substrate preincubated for 1 min followed by chromogenic substrate addition and measured for 2 mins; settings: time 3.0 min
T2 sequence (whole entry): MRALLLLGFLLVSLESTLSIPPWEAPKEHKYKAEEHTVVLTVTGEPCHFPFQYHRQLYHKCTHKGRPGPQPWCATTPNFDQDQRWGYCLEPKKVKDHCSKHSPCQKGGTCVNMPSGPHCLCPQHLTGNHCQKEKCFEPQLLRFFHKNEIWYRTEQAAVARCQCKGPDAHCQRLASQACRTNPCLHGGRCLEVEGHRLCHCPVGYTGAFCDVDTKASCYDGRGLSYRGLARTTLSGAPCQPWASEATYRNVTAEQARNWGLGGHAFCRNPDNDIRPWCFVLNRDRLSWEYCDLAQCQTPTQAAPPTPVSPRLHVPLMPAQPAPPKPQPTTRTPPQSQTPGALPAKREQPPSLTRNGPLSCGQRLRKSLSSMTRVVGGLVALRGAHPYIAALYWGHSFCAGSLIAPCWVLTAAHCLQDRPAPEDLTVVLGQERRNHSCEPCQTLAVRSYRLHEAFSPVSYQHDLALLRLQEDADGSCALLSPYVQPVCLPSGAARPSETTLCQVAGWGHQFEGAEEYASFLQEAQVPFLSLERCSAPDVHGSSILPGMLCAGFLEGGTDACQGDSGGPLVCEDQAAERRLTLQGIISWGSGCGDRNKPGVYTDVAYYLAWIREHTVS

[6] = target: Prothrombin (Homo sapiens) (UniProt P00734); experiment: Inhibition of factor 2a (unknown origin) at IC50 preincubated for 1 min followed by chromogenic substrate addition and measured for 2 mins in presence of AT-III; settings: time 3.0 min
[7] = target: T1, Coagulation factor VII (Homo sapiens); experiment: Inhibition of factor 7a (unknown origin) at IC50 using pefachrome factor VIIa as substrate preincubated for 1 min followed by chromogenic substrate addition and measured for 2 mins in presence of AT-III; settings: time 3.0 min
[8] = target: Coagulation factor X (Homo sapiens) (UniProt P00742); experiment: Inhibition of factor 10a (unknown origin) at IC50 preincubated for 1 min followed by chromogenic substrate addition and measured for 2 mins in presence of AT-III; settings: time 3.0 min
[9] = target: Coagulation factor XI (Homo sapiens) (UniProt P03951); experiment: Inhibition of factor 11a (unknown origin) at IC50 using S-2366 as substrate preincubated for 1 min followed by chromogenic substrate addition and measured for 2 mins in presence of AT-III; settings: time 3.0 min
[10] = target: T2, Coagulation factor XII (Homo sapiens); experiment: Inhibition of factor 12a (unknown origin) at IC50 using kallikrein chromogenic substrate preincubated for 1 min followed by chromogenic substrate addition and measured for 2 mins in presence of AT-III; settings: time 3.0 min
[11] = target: Prothrombin (Homo sapiens) (UniProt P00734); experiment: Inhibition of factor 2a (unknown origin) at IC90 preincubated for 1 min followed by chromogenic substrate addition and measured for 2 mins in presence of AT-III; settings: time 3.0 min
[12] = target: Coagulation factor XI (Homo sapiens) (UniProt P03951); experiment: Inhibition of factor 11a (unknown origin) at IC90 using S-2366 as substrate preincubated for 1 min followed by chromogenic substrate addition and measured for 2 mins in presence of AT-III; settings: time 3.0 min
[13] = target: Coagulation factor X (Homo sapiens) (UniProt P00742); experiment: Inhibition of factor 10a (unknown origin) at IC90 preincubated for 1 min followed by chromogenic substrate addition and measured for 2 mins in presence of AT-III relative to control; settings: time 3.0 min
Plasma [14] = experiment: (§1) Anticoagulation activity in human plasma assessed as drug level causing 20 times doubling of APTT preincubated for 2 mins followed by APTT reagent and measured after 3 mins by coagulometric method relative to dHG-5; type: functional; settings: time 5 min
[15] = target: T3, Coagulation factor IX/VIII (Homo sapiens) (UniProt P00740+P00451); experiment: (§2) Inhibition of human citrated plasma iXase (factor 8a-factor 9a complex) preincubated for 2 mins followed by factor 10 addition and measured after 1 min by FXa chromogenic substrate SXa-11 based assay relative to dHG-5; type: protein-complex assay; settings: time 3.0 min
Coagulation factor IX [16] = target: T4, Coagulation factor IX (Homo sapiens, UniProt P00740); experiment: Inhibition of factor 9a (unknown origin) binding to immobilized biotinylated oHG-11 by biolayer interferometry relative to dHG-5
T4 sequence (P00740 47-191 limits assumed): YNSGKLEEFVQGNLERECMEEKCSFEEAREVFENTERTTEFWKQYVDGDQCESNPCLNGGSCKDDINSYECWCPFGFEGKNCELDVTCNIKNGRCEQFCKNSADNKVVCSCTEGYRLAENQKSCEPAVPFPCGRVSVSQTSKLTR
T4 sequence (P00740 227-461 limits assumed): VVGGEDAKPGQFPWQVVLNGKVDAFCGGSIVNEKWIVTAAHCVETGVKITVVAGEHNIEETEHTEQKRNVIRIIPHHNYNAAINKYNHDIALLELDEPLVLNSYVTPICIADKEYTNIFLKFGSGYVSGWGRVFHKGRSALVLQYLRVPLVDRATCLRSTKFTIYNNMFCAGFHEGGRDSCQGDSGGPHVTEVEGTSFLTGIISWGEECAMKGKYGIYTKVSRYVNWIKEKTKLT

Rattus norvegicus [17] = experiment: (§3) Antithrombotic activity in thromboplastin and stasis-induced Sprague-Dawley rat deep venous thrombosis model assessed as reduction in venous thrombosis at 1.84 mg/kg, sc administered 1 hr prior to thromboplastin addition for 20 secs followed by establishment of stasis for 20 mins relative to dHG-5; type: functional; settings: time 80.33 min, 1.339 h
Plasma [18] = experiment: as §1, with “of APTT by measuring activity potency of oligosaccharides multiplied by the percentage of oligosaccharides in dHG-5 preincubated for” for “of APTT preincubated for”; type: functional; settings: time 5 min
[19] = target: T3, Coagulation factor IX/VIII (Homo sapiens); experiment: as §2, with “complex) assessed as activity potency of oligosaccharides multiplied by the percentage of oligosaccharides in dHG-5” for “complex)”; type: protein-complex assay; settings: time 3.0 min
Coagulation factor IX [20] = target: T4, Coagulation factor IX; experiment: Inhibition of factor 9a (unknown origin) binding to immobilized biotinylated oHG-11 assessed as activity potency of oligosaccharides multiplied by the percentage of oligosaccharides in dHG-5 by biolayer interferometry relative to dHG-5
Rattus norvegicus [21] = experiment: as §3, with “venous thrombosis by measuring activity potency of oligosaccharides multiplied by the percentage of oligosaccharides in dHG-5 at 1.84” for “venous thrombosis at 1.84”; type: functional; settings: time 80.33 min, 1.339 h

In the case of CC(=O)N[C@H]1[C@H](O[C@@H]([C@H](O[C@@H]2O[C@@H](C)[C@@H](OS(=O)(=O)[O-])[C@@H](OS(=O)(=O)O)[C@@H]2O)[C@@H](O)CO)[C@H](O)C(=O)[O-])O[C@H](COS(=O)(=O)[O-])[C@H](OS(=O)(=O)[O-])[C@@H]1O[C@@H]1O[C@H](C(=O)[O-])[C@@H](O[C@@H]2O[C@H](COS(=O)(=O)[O-])[C@H](OS(=O)(=O)[O-])[C@H](O[C@@H]3O[C@H](C(=O)[O-])[C@@H](O[C@@H]4O[C@H](COS(=O)(=O)[O-])[C@H](OS(=O)(=O)[O-])[C@H](O[C@@H]5O[C@H](C(=O)[O-])[C@@H](O[C@@H]6O[C@H](COS(=O)(=O)[O-])[C@H](OS(=O)(=O)[O-])[C@H](O[C@@H]7O[C@H](C(=O)[O-])[C@@H](O[C@@H]8O[C@H](COS(=O)(=O)[O-])[C@H](OS(=O)(=O)[O-])[C@H](O[C@@H]9O[C@H](C(=O)[O-])[C@@H](O[C@@H]%10O[C@H](COS(=O)(=O)[O-])[C@H](OS(=O)(=O)[O-])[C@H](O[C@@H]%11OC(C(=O)[O-])=C[C@H](O[C@@H]%12O[C@@H](C)[C@@H](OS(=O)(=O)[O-])[C@@H](OS(=O)(=O)O)[C@@H]%12O)[C@H]%11O)[C@H]%10NC(C)=O)[C@H](O[C@@H]%10O[C@@H](C)[C@@H](OS(=O)(=O)[O-])[C@@H](OS(=O)(=O)O)[C@@H]%10O)[C@H]9O)[C@H]8NC(C)=O)[C@H](O[C@@H]8O[C@@H](C)[C@@H](OS(=O)(=O)[O-])[C@@H](OS(=O)(=O)O)[C@@H]8O)[C@H]7O)[C@H]6NC(C)=O)[C@H](O[C@@H]6O[C@@H](C)[C@@H](OS(=O)(=O)[O-])[C@@H](OS(=O)(=O)O)[C@@H]6O)[C@H]5O)[C@H]4NC(C)=O)[C@H](O[C@@H]4O[C@@H](C)[C@@H](OS(=O)(=O)[O-])[C@@H](OS(=O)(=O)O)[C@@H]4O)[C@H]3O)[C@H]2NC(C)=O)[C@H](O[C@@H]2O[C@@H](C)[C@@H](OS(=O)(=O)[O-])[C@@H](OS(=O)(=O)O)[C@@H]2O)[C@H]1O.[Na+].[Na+].[Na+].[Na+].[Na+].[Na+].[Na+].[Na+].[Na+].[Na+].[Na+].[Na+].[Na+].[Na+].[Na+].[Na+].[Na+].[Na+].[Na+].[Na+].[Na+].[Na+].[Na+].[Na+].[Na+].[Na+], the inhibition [1] was “inactive”, the “inhibition (active/not active)” value [2] was “inactive” and the inhibition [3] was “inactive”. The inhibition [4] was “inactive”, the inhibition [5] was “inactive” and the inhibition [6] was “inactive”. For the same compound, the inhibition [7] was “inactive”, the inhibition [8] was “inactive” and the inhibition [9] was “inactive”. The inhibition [10] was “inactive”, the inhibition [11] was “Active” and the inhibition [12] was “Active”. For the same compound, the inhibition [13] was “inactive”, the Ratio (Plasma [14]) was 203.41 U and the Ratio [15] was 217 U. It also gave a Ratio (Coagulation factor IX [16]) of 116 U, a Ratio (Rattus norvegicus [17]) of 213.7 U and a Ratio (Plasma [18]) of 22.82 U. The Ratio [19] was 24.4 U, the Ratio (Coagulation factor IX [20]) was 13.1 U and the Ratio (Rattus norvegicus [21]) was 23.93 U.

— ChEMBL document CHEMBL4765450, “The components and activities analysis of a novel anticoagulant candidate dHG-5” (Eur J Med Chem, 2020)
